Where a SMILES comes first, the peptide text is derived from it.
Experiments:
PDK1-wt = molecular target: T1, PDK1-wt (Homo sapiens, UniProt O15530); assay: Phosphorylation of AGC kinase substrates by PDK1 (32P, PhosphoImager); format: biochemical; settings: hydrophobic motif Phe to Ala mutants
T1 construct: made in house; host or cells: human embryonic kidney 293 cells
T1 sequence (O15530 1-556): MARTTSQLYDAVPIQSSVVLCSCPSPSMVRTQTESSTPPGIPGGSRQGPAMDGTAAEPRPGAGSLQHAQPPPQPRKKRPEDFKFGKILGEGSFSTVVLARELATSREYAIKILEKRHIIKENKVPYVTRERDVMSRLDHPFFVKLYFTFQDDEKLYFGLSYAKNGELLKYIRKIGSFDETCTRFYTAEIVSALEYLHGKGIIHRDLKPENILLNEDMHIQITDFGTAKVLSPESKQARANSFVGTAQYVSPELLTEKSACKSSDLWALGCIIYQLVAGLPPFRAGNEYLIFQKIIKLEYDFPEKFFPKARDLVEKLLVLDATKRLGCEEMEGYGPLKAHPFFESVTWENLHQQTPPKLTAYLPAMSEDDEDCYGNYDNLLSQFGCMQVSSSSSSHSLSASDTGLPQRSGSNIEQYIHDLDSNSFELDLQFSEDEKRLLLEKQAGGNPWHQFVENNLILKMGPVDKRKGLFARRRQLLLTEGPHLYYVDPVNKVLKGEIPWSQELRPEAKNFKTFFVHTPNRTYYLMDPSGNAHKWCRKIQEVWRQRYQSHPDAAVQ
Procedure: Phosphorylation of AGC kinase substrates by PDK1. The phosphorylation of PDK1 substrates was performed in a final volume of 20 μl in a buffer containing 50 mM Tris-HCl pH 7.5, 0.1% (by vol) 2-mercaptoethanol, 10 mM magnesium chloride, 100 μM [γ-^32P]ATP (˜1000 c.p.m./pmol), 0.5 μM microcystin-LR, 0.6 μM AGC kinase substrate and 0.6 to 30 nM wild type PDK1 or the indicated mutant of PDK1.
Relative phosphorylation of PDK1 substrates. PDK1 substrates were phosphorylated in vitro, subjected to SDS-PAGE, and radioactivity associated with the bands measured using a Phospho-Imager and known amounts of ATP as standard. The phosphorylation rate of PKB[S473D] in the presence of PtdIns (3,4,5)P3 was 2.6 mol/mol PDK1/min and was taken as the relative value of 100. Average values from a representative experiment performed in duplicates are shown.

PDK1 [1] = molecular target: T2, PDK1 (Homo sapiens, UniProt O15530); assay: PDK1 activity towards synthetic peptide substrates T308tide or PDKtide; format: biochemical; settings: substrate PDKtide
T2 construct: Full length PDK1 (residues 1-556); made in house; host or cells: 293 cells
T2 sequence (O15530 52-556): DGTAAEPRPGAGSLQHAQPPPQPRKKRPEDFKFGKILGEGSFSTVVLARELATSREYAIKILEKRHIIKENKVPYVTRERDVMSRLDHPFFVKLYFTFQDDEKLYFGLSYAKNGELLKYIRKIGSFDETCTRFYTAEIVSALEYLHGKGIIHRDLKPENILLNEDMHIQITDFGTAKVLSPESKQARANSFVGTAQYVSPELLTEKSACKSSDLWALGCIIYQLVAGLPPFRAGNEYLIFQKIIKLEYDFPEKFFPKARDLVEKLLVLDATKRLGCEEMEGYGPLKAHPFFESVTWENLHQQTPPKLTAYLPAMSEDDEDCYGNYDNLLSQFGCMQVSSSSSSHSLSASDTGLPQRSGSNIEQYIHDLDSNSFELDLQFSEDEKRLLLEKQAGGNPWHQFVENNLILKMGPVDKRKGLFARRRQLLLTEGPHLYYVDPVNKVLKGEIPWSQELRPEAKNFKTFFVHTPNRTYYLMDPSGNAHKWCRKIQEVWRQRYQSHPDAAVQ
Procedure: (§1) FIG. 12. PDK1 is activated and stabilised through its interaction with PIFtide. (A) GST-PDK1 activity was measured in the presence of increasing concentrations of wild type (wt) PIFtide (closed circles) or a mutant D978A PIFtide (open circles) using the synthetic peptide substrate termed T308tide, as described in Material and Methods. The data was fitted to a hyperbola using the Kaleidagraph™ software. The connection needed to obtain 50% activation of PDK1 was […] for wt-PIFtide and 1.1 μM for D978A-PIFtide. The assay shown was performed in triplicate and there was less than 5% difference between each assay. Similar results were obtained in 2 further experiments (B)—The wild type GST-PDK1 (circles) or the L155D mutant of GST-PDK1 (squares) was incubated in the presence (closed symbols) or absence (open symbols) of […] PIFtife and then for 2 min at the indicated temperatures, rapidly brought to 0° C. (see Materials and Methods), and 2 min later assayed at 30° C. for 10 min using T308tide as substrate. The activity of PDK1 obtained by incubation at 30° C. was taken as 100%. The assay shown was performed in duplicate with similar results obtained in two separate experiments.
(§2) FIG. 14. […] (A) His-PDK1 was assayed for activity using as substrate the indicated concentration of either PDKtide (open triangles) or T308tide (open circles). (B) HIS-PDK1 was assayed for activity in the presence if PDKtide (25 μM closed triangles) or T308tide (100 μM closed circles) in the presence of the indicated concentrations of PIFtide. The assay was performed in triplicates with less than 5% difference between the triplicate samples. Similar results were obtained in 3 separate experiments.
(§3) PDK1's ability to phosphorylate Thr308 of PKBα was measured using a mutant of GST-PKBα in which Ser473 was mutated to Asp (GST-473D PKBα) in the presence of phospholipid vesicles containing sn-1-stearoyl-2-arachidonoyl-D-PtdIns (3, 4, 5)P3 [13]. The ability of wild type and mutant PDK1 to phosphorylate the synthetic peptides T308tide or PDKtide was carried out in 20 μl assays containing 50 mM Tris/HCl pH 7.5, 0.1% 2-mercaptoethanol 10 mM MgCl2, 100 μM [γ^32P]ATP (˜500 cpm/pmol) 0.5 μM microcystin-LR.PDK1 and the peptide concentrations indicated under Results. After incubation for 10 min at 30° C. the reaction was stopped by addition of 20 μl of 150 mM phosphoric acid. 35 μl of the resultant mixture was spotted into P81 phosphocellulose paper (2×2 cm) and the papers washed and analysed as described previously for assays of MAP kinase. […] Control assays were carried out in parallel in which either PDK1, or peptide substrate were omitted; these values were always less than 5% of the activity measured in the presence of these reagents. […]

PDK1 [2] = assay: as above; format: biochemical, human; settings: PDK1 L155 mutants
Procedure: as §1, §2, §3

SMILES: CC[C@H](C)[C@H](NC(=O)[C@H](Cc1ccc(O)cc1)NC(=O)[C@H](CC(=O)O)NC(=O)[C@H](Cc1ccccc1)NC(=O)[C@H](CC(=O)O)NC(=O)[C@H](CCCNC(=N)N)NC(=O)[C@H](Cc1ccccc1)NC(=O)[C@H](CCSC)NC(=O)[C@H](CCC(=O)O)NC(=O)[C@H](CCC(N)=O)NC(=O)[C@H](CCC(=O)O)NC(=O)[C@H](CCC(=O)O)NC(=O)[C@H](CCC(=O)O)NC(=O)[C@H](CO)NC(=O)[C@H](CC(C)C)NC(=O)[C@@H](NC(=O)[C@H](CCCNC(=N)N)NC(=O)[C@@H]1CCCN1C(=O)[C@H](CCC(=O)O)NC(=O)[C@@H](N)CCCNC(=N)N)[C@@H](C)CC)C(=O)N[C@@H](C)C(=O)N[C@@H](CC(=O)O)C(=O)N[C@@H](Cc1c[nH]c2ccccc12)C(=O)N[C@@H](CS)C(=O)O [PIFtide] (H-REPRILSEEEQEMFRDFDYIADWC-OH; N-terminus and C-terminus assumed)
- basal rate at which PDK1 phosphorylated S6K1[F411A], SGK1[F421A] and ΔPH-PKBα[F472A] (PDK1-wt): not inhibited
- effect on the activity of PDK1 towards PDKtide (PDK1 [1]): inhibited
- activation of L155A, L155S, L155D and L155E mutants of PDK1 towards T308tide (PDK1 [2]): did not further activate
